Entries after “also recorded” stand apart in the source; their conditions may differ. Like-named read-outs stand apart in the source and are kept apart here.
Key:
[1] = tested on: 01SD NPC cultures; assay: Cytotoxicity in uninfected NPC cultures, flow cytometry with fixable viability dye; details: uninfected 01SD NPCs; for cell viability of treated cultures: concentrations up to 50 μM
[2] = tested on: HSV-1; details: cited from earlier work
[3] = tested on: SARS-CoV-2 (isolate USA WA1/2020); assay: NIH-NIAID in vitro SARS-CoV2 viral replication assay in Calu3 cells; format: cell-based; details: for therapeutic selectivity: CC50/IC50 in Calu3 cells
[4] = tested on: fibroblasts, hepatocytes, iPSC-derived neural progenitor cells; parameters: method as in PMID 30413769; details: cited from earlier work
[5] = Toxicity (cell number) in Calu3 cells in the SARS-CoV-2 assay; format: cell-based; details: human, Calu3 (ATCC, HTB-55) cells infected with SARS-CoV-2, 48 h post-infection
[6] = tested on: host cell gene expression in 02SF NPCs; assay: RNA sequencing and Ingenuity Pathway Analysis of uninfected NPCs; format: cell-based, human; details: 10 μM
[7] = tested on: HSV-1; format: cell-based; details: 10 μM; for reduction of the percentage of EGFP+-RFP+ cells compared to infected cells exposed to vehicle: MOI 0.1, day 3 p.i.; for anti-HSV-1 activity in NPCs: 01SD and 9001 NPCs, day 3 p.i.
[8] = tested on: HSV-1; assay: microbe, parasite or virus in culture; format: cell-based; details: for inhibition of HSV-1 infection (EGFP and RFP reporter expression) in brain organoids: 9001 and 01SD fourteen-week old organoids, 6000 pfu/organoid, compounds 10 μM, ACV 50 μM, day 3 p.i.
[9] = tested on: eIF2α phosphorylation on serine 51; assay: Immunocytochemistry of eIF2α phosphorylated on serine 51 in NPCs; format: cell-based, human; details: 9001 NPCs, 10 μM, 24 h, compared to untreated or 7-treated NPCs
Method: The RNA sequencing data is thus fully consistent with the hypothesis that 2b and 8 trigger a host antiviral response by activating an ISR.
Figure 8 Activation of the integrated stress response in 2b- and 8-treated NPCs. (A) NPCs derived from 9001 iPSC lines were exposed to compounds 7, 8, and 2b (10 μM). After 24 h, cells were fixed and stained with an antibody that detects eIF2α phosphorylated on Serine 51 (EIF2S1). Nuclei were counterstained with Hoechst 33342, and phosphorylation was assessed by fluorescence microscopy. (B) The corrected total cell fluorescence (CTCF) was obtained by measuring EIF2S1 fluorescence in cells where a fluorescent signal could be detected and normalizing for cellular area using equation CTCF = integrated density − (cellular area × mean fluorescence of background readings). Error bars are standard deviations. One-way analysis of variance (ANOVA) followed by Bonferroni post-hoc test was used to compare CTCF among the different conditions: ** (P = 0.0042); **** (P < 0.0001). (C,D) Up-regulation of the EIF2A kinase EIF2AK3 (C) and the activated transcription factor 4 (ATF4) (D) in 2b- and 8-treated NPCs. Fold-changes were calculated from RNA-seq data described in the methods section. (E) Proposed mechanism of action of 2b and 8.

[10] = cited from earlier work
[11] = tested on: HSV-1 strain 17syn+; assay: Mouse ocular model of HSV-1 infection, plaque assay of eye swabs; format: in vivo, ND4 Swiss mice
Method: The antiviral efficacy of compound 8 was further investigated and confirmed in an in vivo mouse model. ND4 Swiss mice were infected in the eyes with HSV-1 following light corneal scarification as described in the Materials and Methods section. At the same time that the virus was applied, one group of mice (n = 10) were treated a 50uM solution of compound 8 in DMSO and the other group (n = 10) were treated DMSO (vehicle). The eyes were treated with either vehicle or compound 8 each day for 4 days. The eyes were swabbed daily and infectious virus shedding was assessed by standard plaque assay.
Figure 9 In vivo antiviral activity. ND4 swiss mice were infected by corneal scarification with 1 × 10^5 pfu of HSV-1 strain 17syn+. Eyes were swabbed daily for 4 days and assayed for infectious virus by standard plaque assay.
ND4 Swiss mice, 4–6 weeks of age, (Envigo labs) were infected by the ocular route. Mice were anesthetized with isoflurane and the cornea were lightly scarified with a 23 ga. needle. 1 × 10^5 pfu (in 5 µl) of HSV-1 strain 17syn+ was applied to the corneal surface. At the same time, one group of mice (n = 10) were treated with 2 µL of a 50 µM solution of compound 8 in DMSO and the other group (n = 10) were treated with 2 µL DMSO (vehicle), applied to the eyes. The eyes were treated with either vehicle or compound 8 each day for 4 days. In order to assess the effect of compound 8 on the course of the infection, the eyes were swabbed daily with a Dacron swab, and the virus eluted in MEM medium. The swab eluate was assessed for the presence of infectious virus by standard plaque assay on rabbit skin cell monolayers.

[12] = tested on: human brain organoids; assay: Organoid viability, calcein AM assay; format: cell-based; parameters: organoid viability: dose or concentration left out as unconfirmed
Method: Sixteen-week old brain organoids were infected as described above and exposed after 2 h to increasing 8 concentration ranging from 0.01 to 50 μM. At day 3 p.i. the IC50 of 8 was determined by measuring the intensity of the fluorescent reporter gene EGFP (whose expression is under the control of promoter of the immediate early HSV-1 gene ICP0) in the infected organoids was investigated. The EGFP expression was used as a proxy for viral gene expression during early stages of HSV-1 acute infection.
Figure 6 Antiviral efficacy and cytotoxicity of 8 against HSV-1 in human brain organoids. […] The IC50 was estimated by determining the corrected total cell fluorescence (CTCF) obtained by measuring EGFP fluorescence in organoids using ImageJ and normalizing for background using equation CTCF = integrated density − (area of the organoid × mean fluorescence of background readings). (B) Cytotoxicity of 8 without HSV-1 infection was assessed using calcein-AM. The fluorescence of calcein-AM in each organoid was measured and CTCF was determined as described above. […] 9001 and 01SD are printed as plot headings and were read as the test systems (organoid lines), not as substances. […]
Organoids viability was analyzed using calcein AM assay (BioLegend; catalogue # 425201), according to manufacturer’s instructions. […]

Nc1nc2c(ncn2COCCO)c(=O)[nH]1 [ACV, acyclovir]
cell viability of treated cultures [1]: comparable

O=C1N[C@H]2[C@H](O)[C@H](O)[C@@H](O)C[C@@H]2c2cc3c(cc21)OCO3 [Compound 2b, trans-dihydrolycoricidine, reference compound]
inhibition of HSV-1 replication ([2]; compared with acyclovir (ACV)): more efficaciously than acyclovir
HSV-1 reactivation from latency ([2]; ex vivo mouse model): prevents HSV-1 reactivation from latency
potency against HSV-1 strains resistant to ACV ([2]; tk- strain and PAAv strain): moderate potency
therapeutic selectivity [3]: 19
toxicity in comparison to acyclovir ([4]; fibroblasts and hepatocytes): Slightly higher toxicity
toxicity in comparison to acyclovir ([4]; iPSC-derived neural progenitor cells (NPCs)): lower toxicity
concentration from which a reduction in cell viability was observed [1]: ≥ 25 µM
CC50 at 48 h [5]: 3480 nM
expression of activated transcription factor 4 (ATF4) (RNA-seq) [6]: Up-regulation
expression of the EIF2A kinase EIF2AK3 (RNA-seq) [6]: Up-regulation
reduction of the percentage of EGFP+-RFP+ cells compared to infected cells exposed to vehicle ([7]; 01SD NPCs): 8016 fold
reduction of the percentage of EGFP+-RFP+ cells compared to infected cells exposed to vehicle ([7]; 9001 NPCs): 424 fold
inhibition of HSV-1 infection (EGFP and RFP reporter expression) in brain organoids [8]: no expression of EGFP and RFP reporter genes
eIF2α ~ P immunoreactivity [9]: increased

O=C1N[C@H]2[C@H](O)[C@H](O)[C@@H](O)CN2c2cc3c(cc21)OCO3 [Compound 4]
antiviral activity [10]: totally devoid of antiviral activity

COc1ccc2c(c1)[C@H]1C[C@H](O)[C@@H](O)[C@@H](O)[C@@H]1NC2=O [Compound 5, (2S,3R,4S,4aR,10bR)-2,3,4-Trihydroxy-9-methoxy-1,3,4,4a,5,10b-hexahydrophenanthridin-6(2H)-one]
anti-HSV-1 activity in NPCs [7]: no anti-HSV-1 activity

O=C1N[C@H]2[C@H](O)[C@H](O)[C@@H](O)C[C@@H]2c2cc(O)ccc21 [Compound 6, (2S,3R,4S,4aR,10bR)-2,3,4,9-Tetrahydroxy-1,3,4,4a,5,10b-hexahydrophenanthridin-6(2H)-one]
anti-HSV-1 activity in NPCs [7]: no anti-HSV-1 activity
inhibition of HSV-1 infection (EGFP and RFP reporter expression) in brain organoids [8]: no anti-HSV-1 activity

COc1cccc2c1C(=O)N[C@H]1[C@H](O)[C@H](O)[C@@H](O)C[C@H]21 [Compound 7, (2S,3R,4S,4aR,10bR)-2,3,4-Trihydroxy-7-methoxy-1,3,4,4a,5,10b-hexahydrophenanthridin-6(2H)-one]
anti-HSV-1 activity in NPCs [7]: no anti-HSV-1 activity
inhibition of HSV-1 infection (EGFP and RFP reporter expression) in brain organoids [8]: no anti-HSV-1 activity

O=C1N[C@H]2[C@H](O)[C@H](O)[C@@H](O)C[C@@H]2c2cccc(O)c21 [Compound 8, (2S,3R,4S,4aR,10bR)-2,3,4,7-Tetrahydroxy-1,3,4,4a,5,10b-hexahydrophenanthridin-6(2H)-one]
therapeutic selectivity [3]: 20
yield of infectious virus in the tears (HSV-1 shedding) compared to vehicle treated eyes ([11]; mouse eyes, 50 µM solution in DMSO, daily for 4 days): dramatically reduced; also recorded: dramatically reduces HSV-1 shedding
reduction of peak titer of infectious virus ([11]; mouse eyes, 50 µM solution in DMSO, daily for 4 days, vs vehicle): reduced almost threefold
yield of infectious virus in the tears (HSV-1 shedding) compared to vehicle treated eyes ([11]; mouse eyes, 50 µM solution in DMSO, daily for 4 days, listed as 7-hydroxyl derivative): dramatically reduced HSV-1 shedding
delay of peak titer of infectious virus ([11]; vehicle peak at day 2 post-infection): delayed by one day
cell viability of treated cultures [1]: comparable
CC50 at 48 h [5]: 1920 nM
expression of activated transcription factor 4 (ATF4) (RNA-seq) [6]: Up-regulation
expression of the EIF2A kinase EIF2AK3 (RNA-seq) [6]: Up-regulation
reduction of the percentage of EGFP+-RFP+ cells compared to infected cells exposed to vehicle ([7]; 01SD NPCs): 6.76 fold
reduction of the percentage of EGFP+-RFP+ cells compared to infected cells exposed to vehicle ([7]; 9001 NPCs): 4.65 fold
inhibition of HSV-1 infection (EGFP and RFP reporter expression) in brain organoids [8]: no expression of EGFP and RFP reporter genes
IC50 ([8]; Human alphaherpesvirus 1, 72 h, read-out: IC50 of HSV-1 infection (EGFP intensity), 01SD organoids, sixteen-week old, day 3 p.i.): 209 nM
IC50 ([8]; Human alphaherpesvirus 1, 72 h, read-out: IC50 of HSV-1 infection (EGFP intensity), 9001 organoids, sixteen-week old, day 3 p.i.): 504 nM
IC50 ([8]; Human alphaherpesvirus 1, read-out: IC50 (EGFP CTCF), printed in Figure 6A, 01SD organoids): 209 nM
IC50 ([8]; Human alphaherpesvirus 1, read-out: IC50 (EGFP CTCF), printed in Figure 6A, 9001 organoids): 504 nM
organoid viability [12]: No significant reduction
organoid viability (calcein AM) ([12]; without HSV-1 infection, concentrations up to 50 μM): No significant reduction; also recorded: No significant differences in cell viability
eIF2α ~ P immunoreactivity [9]: increased

CCC(CC)COC(=O)[C@H](C)N[P@](=O)(OC[C@H]1O[C@@](C#N)(c2ccc3c(N)ncnn23)[C@H](O)[C@@H]1O)Oc1ccccc1 [remdesivir]
IC50 ([3]; Severe acute respiratory syndrome coronavirus 2, Calu-3, Calu3 cells, MOI=0.5, 2 h pretreatment, 48 h post-infection, read-out: IC50 (infection, dsRNA+ cells/total cell number)): 60 nM

Reference: PMC9885069 (Scientific Reports, 2023)
